Each structure is given as a SMILES string. In brackets after ≈: the same amount, converted by molar mass.

One series has as its system Anas platyrhynchos. Conditions: short-term; oral; feed; mortality.
For the next series, the system named is Canidae. The conditions noted are these: oral, Dog Other, hematological.
In another series the test system is Rattus norvegicus. The conditions noted are these: chronic; duration: 2 years; organ weight.
A further series deals with Colinus virginianus. The conditions noted are these: mortality.
The test system of the next series is Apis mellifera. The conditions noted are these: acute; duration: 48 hours; oral; unspecified; mortality.
The subject of a further series is Tagia sp. Conditions: acute; mortality.
The test system of the next series is Typhlodromus pyri. Conditions: not reported; mortality.
A further series has as its system Daphnia magna. The conditions noted are these: chronic/long-term; duration: 21 days; reproduction.

The term NOAEL denotes the highest dose or exposure tested at which no adverse effect was seen. Regarding `CCSC(C)CC1CC(=O)C(C(CC)=NOC/C=C/Cl)=C(O)C1` (configuration not stated) [Clethodim], the LC50 is over 851 mg/kg-day in the series with Anas platyrhynchos; 25 µg/mL (≈ 69.5 µM) with Oncorhynchus mykiss (acute, duration: 96 hours, mortality); 129 mg/kg in the series on Tagia sp.. Also, the NOAEL worked out at 21 mg/kg-day in the series with Canidae (chronic, duration: 1 years); 21 mg/kg-day in the series on Canidae (subchronic, duration: 90 days); 16 mg/kg-day in the series with Rattus norvegicus. Besides, the NOEC in the series with Oncorhynchus mykiss (chronic/long-term, duration: 21 days) worked out at 3.9 mg/L; with Daphnia magna, 49 mg/L. Moreover, the LD50 in the series on Colinus virginianus (acute, oral) was over 1640 mg/kg; in the series with Apis mellifera, over 43 µg/piece. The compound further returned an NOEL with Colinus virginianus (reproduction developmental) of 17 mg/kg-day. Besides, in the series on Typhlodromus pyri, the LEL was determined as 9.6 g/ha.

Values taken from EPA's ToxValDB 9.5 (doi:10.2903/j.efsa.2011.2417).
